One assay concerns PIP3. Nature of the assay: CFP/YFP emission ratio time course after PDGF stimulation of probe-expressing CHO-PDGFR cells. In kind it is cell-based, Chinese hamster. The settings on record: for PIP3 in plasma membranes and endomembranes: stimulation by other peptide ligands instead of PDGF. As to the method: Ovarian cells of Chinese hamster (CHO) were cultured in Ham's F-12 medium supplemented with 10% fetal calf serum (FCS) at 37° C. in 5% CO2. The resulting CHO-PDGFR cells were plated onto glass-bottomed dishes, each of Fllip-pm, Fllip-pmR284C, Fllip-del and Fllip-em expression vectors were transfected with LipofectAMINE2000 reagent (manufactured by Life Technology) and left for 24 hours at 37° C. in 5% CO2.
After serum starvation with serum-free incubating medium, the medium was replaced with a Hank's balanced salt solution. Then, in accordance with a method already reported by the inventors (such as Non-Patent Documents 12 and 13), the cells were imaged at room temperature on a Carl Zeiss Axiovert 135 microscope with a cooled CCD camera, MicroMAX (Roper Scientific lnc, Tucson, Ariz.), controlled by MetaFluor. (Universal Imaging, West Chester, Pa.). The fluorescence images were obtained through 480±15 nm and 535±12.5 nm filters with a 40× oil immersion objective (Carl Zeiss, Jena, Germany). YFP images were detected by a confocal laser scanning microscope LSM 510 (Carl Zeiss).
Response of Fllip-pm to PIP3 produced by physiological stimulation was examined.
Fllip-pm was expressed in CHO-PDGFR cells stably expressing platelet-derived growth factor receptor (PDGFR). PDGF treatment promotes dimerization of PDGFR that results in phosphorylation of multiple tyrosine residues of PDGFR and its activation. PI3K is recruited to these tyrosine phosphorylation sites through its Src-homology 2 (SH2) domain, resulting in its activation (Schlessinger, J. (2000), Cell, 103, 211-225).
The time course of CFP/YFP-emission ratio when PDGF (50 ng/mL) was added to a cell expressing Fllip-pm at plasma membrane are shown in FIG. 6 and FIG. 7.
According to the same method as in Examples 4 and 5, response of Fllip-pmR284C, of which PHD was mutated not to bind to PIP3, was examined.
Fllip-em was expressed in the CHO-PDGFR cells by the same method as in Example 2. After that, the cells were stimulated with PDGF by the same method as in Example 5 and the time course of CFP/YFP emission ratio was measured.

The subject of assay [1] is C1B domain derived from PKC. Nature of the assay: Response of DAG-fllip-pm and DAG-fllip-em to phorbol ester (PMA). In kind it is cell-based. Conditions: phorbol ester (PMA) added. As to the method: It has been known that C1B domain derived from PKC is selectively bound to DAG. Therefore, this domain was selected as an LBD and the lipid second messenger detecting- and quantifying-probe (hereinafter, referred to as DAG-Fllip) was prepared. Localization domains to the plasma membrane and endomembranes are linked with DAG-fllip to prepare DAG-fllip-pm and DAG-fllip-em. After that, in order to confirm whether the DAG-fllip-pm and the DAG-fllip-em respond to DAG, the DAG-fllip-pm and the DAG-fllip-em were evaluated by using phorbol ester (PMA), which is a substance having a membrane permeability, and specifically bound to C1B domain.

Setting [2] is: PDGF 50 ng/mL, Fllip-pm at plasma membrane of CHO-PDGFR cells.

Here are results for four compounds from patent US7507555B2, “Probe for detecting and quantifying lipid second messenger and method of detecting and quantifying lipid second messenger using the same” (Japan Science and Technology Agency, priority 2003, dated 2009).

As to “epidermal growth factors: other peptide ligand”, in the assay on PIP3, the “PIP3 in plasma membranes and endomembranes” value is given as “induced the PIP3 increase”.
In the case of PDGF, in the assay with PIP3 (setting [2]), the CFP/YFP emission ratio entry is given as “decreased immediately” and the “time for CFP/YFP emission ratio to reach a plateau” value was found to be 300 s. For the same compound, the “extent of PIP3 increase in the endomembranes relative to that in the plasma membrane” value with PIP3 (upon PDGF stimulation) was “twice to three times”.
As for insulin: other peptide ligand, the “PIP3 in plasma membranes and endomembranes” value in the assay on PIP3 was “induced the PIP3 increase”.
As to `CCCCCCCCCCCCCC(=O)O[C@@H]1[C@@H](C)[C@@]2(O)[C@@H](C=C(CO)C[C@]3(O)C(=O)C(C)=C[C@@H]23)[C@@H]2C(C)(C)[C@]12OC(C)=O` [phorbol ester], in assay [1], the “fluorescence intensity ratio (CFP/YFP) of DAG-fllip-em” value is “decreased” and the “fluorescence intensity ratio (CFP/YFP) of DAG-fllip-pm” value was “decreased”.
